From patent publication US20180117005A1, “COMPOSITIONS FOR THE TREATMENT OF CANCER” (THE GENERAL HOSPITAL CORPORATION, priority 2015, published 2018) come the findings set out here.

The test system of this test is tumor that expresses high levels of CXCL12. Briefly: Tumor growth in mice with a subcutaneous CXCL12-expressing tumor, AMD3100 followed by cisplatin. In kind it is in vivo. As to the method: Mice are injected with tumor cells (subcutaneous injection) from a tumor that expresses high levels of CXCL12 and a tumor allowed to develop. Once the tumor has formed, the mice are injected (subcutaneous in the same flank as the tumor) with AMD3100 or vehicle, once a day for 5 days.
One to three days after the final dose of AMD3100, mice are injected via intraperitoneal injection with a therapeutically effective amount of cisplatin 18 hours prior to assay of tumor growth.

Regarding `c1cc(CN2CCCNCCNCCCNCC2)ccc1CN1CCCNCCNCCCNCC1` [AMD3100], for the setting “AMD3100 subcutaneous once a day for 5 days, then cisplatin intraperitoneal one to three days after the final dose”, the “Delay in tumor growth, co-treatment versus cisplatin alone” value is “synergistic effect”.

For the compound `N.N.[Cl][Pt][Cl]` [cisplatin], the Tumor growth result (cisplatin intraperitoneal 18 hours prior to assay, growth resumes soon after treatment is discontinued in mice not administered AMD3100) was “delayed”.
